Measurements: article PMC9841533, “Microtubule-Stabilizing 1,2,4-Triazolo[1,5-a]pyrimidines as Candidate Therapeutics for Neurodegenerative Disease: Matched Molecular Pair Analyses and Computational Studies Reveal New Structure–Activity Insights” (Journal of Medicinal Chemistry, 2022)
Read-outs that look alike come from different tables or passages of the source.

Columns and labels:
[1] = system: acetylated α-tubulin (AcTub) levels in QBI293 cells; set-up: method as in PMID 26980057, PMID 33411523; conditions: activity reported in previous studies; cited from earlier work
[2] = system: total tubulin levels in HeLa cells; set-up: method as in earlier work; conditions: 16 h incubation, ref 13 (Yang et al.); cited from earlier work
[3] = system: acetylated α-tubulin (AcTub) levels in QBI293 cells; assay: QBI293 cell assay of MT stabilization: acetylated α-tubulin ELISA; format: cell-based
Outline: (§1)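 AcTub and α-Tub were quantified by ELISA in whole-cell extracts normalized by BCA protein and expressed relative to vehicle. AcTub changes were also scaled to a 100 nM reference stabilizer control.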

[4] = system: total α-tubulin (α-Tub) levels in QBI293 cells; assay: QBI293 cell assay: total α-tubulin ELISA; format: cell-based
Outline: as §1

[5] = Brain-to-plasma ratio in mice; format: in vivo; conditions: mouse, ip, 1 h post-administration, i.p. 1.5 mg/kg, read-out: brain-to-plasma ratio (B/P)
[6] = Plasma pharmacokinetics in CD-1 mice; format: in vivo, mouse; conditions: male, mouse
Procedure: Studies to determine the pharmacokinetic properties of compounds 53 and 60 were conducted at Touchstone Biosciences (Plymouth Meeting, PA). For the determination of plasma pharmacokinetics, three male CD-1 mice (2–3 months of age) were injected i.v. (tail vein) with test compound at a dose of 5 mg/kg in a solution of 10% DMSO, 40% polyethylene glycol, and 50% water, and another three male CD-1 mice received oral gavage dosing of 60 formulated as above at a dose of 20 mg/kg. Blood samples were collected from the saphenous or submandibular veins at multiple time points after dosing and collected in Greiner MiniCollect K2EDTA tubes. Compound levels in plasma were determined by LC-MS/MS, using protocols similar to those previously described.[16],[22]

[7] = system: de-tyrosinated α-tubulin (GluTub) in brain of WT mice; assay: Brain PD: Glu-tubulin in brain tissue after compound treatment; format: in vivo, mouse; conditions: WT CD-1 mice, 1 mg/kg i.p. once daily for two consecutive days
Procedure: Finally, to evaluate target engagement in the CNS, PD studies were conducted to determine compound-dependent elevations in the stable MT marker, de-tyrosinated α-tubulin (GluTub), in brain homogenates from compound-treated WT mice.
All animal protocols were approved by the University of Pennsylvania Institutional Animal Care and Use Committee (IACUC). […] Compounds were diluted from 20 or 40 mM DMSO stock solutions into 30% Kolliphor EL (Sigma-Aldrich) phosphate-buffered saline, pH 7.4. After 4 h following the second injection, mice were euthanized and cortices and hippocampi were isolated from each brain and placed in 0.2 mL of ice-cold radioimmunoprecipitation assay (RIPA) buffer (50 mM Tris, 150 mM NaCl, 5 mM EDTA, 0.5% sodium deoxycholate, 1% NP-40, 0.1% sodium dodecyl sulfate (SDS), pH 8.0) containing protease inhibitor (PI) cocktail (Sigma-Aldrich), 1 mM phenylmethylsulfonyl fluoride (PMSF) (Sigma-Aldrich), and 3 μM trichostatin A (TSA) (Sigma-Aldrich). The brain samples were homogenized with a handheld battery-operated mixer and subsequently sonicated. After centrifugation at 100,000g for 30 min at 4 °C, supernatant samples were transferred to a new tube and the pellets were resuspended in 0.15 mL of RIPA buffer and again homogenized, sonicated, and centrifuged. The supernatant from the second centrifugation was pooled with that from the first. The combined supernatant samples were assessed for protein concentration using a BCA assay (Thermo Fisher Scientific), and equal protein amounts from each brain sample underwent separation by 10% sodium dodecyl sulfate polyacrylamide gel electrophoresis (SDS-PAGE) followed by transfer onto nitrocellulose membranes essentially as previously described.[11] […] Incubation with infrared dye-conjugated secondary antibodies and subsequent imaging and quantification of the blots on the Odyssey imaging system were as described.[11]

[8] = Resazurin cell viability assay, QBI293; format: cell-based; conditions: human, QBI293 cells, three biological replicates, read-out: QBI293 CC50 ± SD
Procedure: (§2) Cell Culture. QBI293 and HeLa cells were cultured in DMEM supplemented with 10% heat-
(§3) inactivated FBS and 1% penicillin-streptomycin. Cells were grown in T175 cell culture flasks maintained
(§4) at 37 ℃ in 5% CO2 and sub-c ultured when at 60-8 0% cell confluence.
(§5) Resazurin Cell Viability Assay. Cytotoxicity in QBI293 and HeLa cells was measured using the
(§6) resazurin cell viability assay.1 Test compounds were serially diluted in DMSO and added to 96-well
(§7) polystyrene assay plates to give final assay concentrations ranging from 100 nM to 4000 nM (1 µL; 1%
(§8) total DMSO). Fresh medium was added to the assay plate (49 µL/well). QBI293 or HeLa cells were
(§9) cells/well. Assay plates were incubated at 37 °C and 5% CO2 for 48 h, followed by addition of 20 µL 0.5
(§10) mM resazurin (Alfa Aesar, Cat. B21187) in PBS to each well. Assay plates were incubated in the dark for
(§11) (1 picture or pasted object on this page, not shown here)
(§12) 4 h at 37 °C. Fluorescence was measured at 531 nm and 595 nm excitation and emission wavelengths,
(§13) respectively, using a 2104 EnVision® multilabel plate reader. The viability of each well was normalized to
(§14) positive and negative controls in each assay plate. Dose-response curves were generated and CC50 values
(§15) calculated with GraphPad Prism, version 9.3 (San Diego, CA) using a sigmoidal four parameter logistic
(§16) curve. The means ± standard deviations from three biological replicates are shown.
(§17) (1) O'Brien, J.; Wilson, I.; Orton, T.; Pognan, F. Investigation of the Alamar Blue (resazurin) fluorescent
(§18) dye for the assessment of mammalian cell cytotoxicity. Eur. J. Biochem. 2000, 267 (17), 5421-5426.

[9] = Resazurin cell viability assay, HeLa; format: cell-based; conditions: human, HeLa cells, three biological replicates, read-out: HeLa CC50 ± SD
Procedure: as §2, §3, §4, §5, §6, §7, §8, §9, §10, §11, §12, §13, §14, §15, §16, §17, §18

## C[C@H](Nc1c(-c2c(F)cc(F)cc2F)c(Cl)nc2ncnn12)C(F)(F)F [Compound 2]
[1]
  Class (cellular phenotype): I
[2]
  total tubulin levels: reduction in total tubulin levels

## C[C@@H](Nc1c(-c2c(F)cc(C#CCCN(C)C)cc2F)c(Cl)nc2ncnn12)C(C)(C)C [Compound 60, (R)-5-Chloro-6-(4-(4-(dimethylamino)but-1-yn-1-yl)-2,6-difluorophenyl)-N-(3,3-dimethylbutan-2-yl)-[1,2,4]triazolo[1,5-a]pyrimidin-7-amine]
[3]; 1 uM compound, normalized
  AcTub (1 uM - normalized): 1.75
[3]; 10 uM compound, normalized
  AcTub (10 uM - normalized): 1.28
[3]; 4 h, 1 uM compound, read-out: AcTub (1uM)
  fold induction at 1 µM: 9.5
[3]; 4 h, 10 uM compound, read-out: AcTub (10 uM)
  fold induction at 10 µM: 6.94
[3]; 4 h incubation, 1 μM
  AcTub 1 μM, fold-change compared to positive control compound 5 (100 nM) (in parentheses): 1.75 fold-change
[3]; 4 h incubation, 1 μM, read-out: AcTub 1 μM, fold-change compared to vehicle (DMSO)-treated cells
  fold induction at 1 µM: 9.5 ± 0.34
[3]; 4 h incubation, 10 μM
  AcTub 10 μM, fold-change compared to positive control compound 5 (100 nM) (in parentheses): 1.28 fold-change
[3]; 4 h incubation, 10 μM, read-out: AcTub 10 μM, fold-change compared to vehicle (DMSO)-treated cells
  fold induction at 10 µM: 6.94 ± 0.22
[4]; 4 h, 1 uM compound, read-out: AlfaTub (1uM)
  fold induction at 1 µM: 0.94
[4]; 4 h, 10 uM compound, read-out: AlfaTub (10 uM)
  fold induction at 10 µM: 0.98
[4]; 4 h incubation, 1 μM, read-out: α-Tub 1 μM, fold-change compared to vehicle (DMSO)-treated cells
  fold induction at 1 µM: 0.94 ± 0.01
[4]; 4 h incubation, 10 μM, read-out: α-Tub 10 μM, fold-change compared to vehicle (DMSO)-treated cells
  fold induction at 10 µM: 0.98 ± 0.01
[5]
  Kp at 1 h: ~0.5
[6]; iv, i.v. 5 mg/kg
  Vd at 24 h: 4.8 L/kg
  clearance at 24 h: 8.2 mL/min/kg
[6]; iv, i.v. 5 mg/kg, read-out: half-life (T1/2)
  half-life: > 6 h
[6]; iv, i.v. 5 mg/kg, read-out: half-life (T1/2) (converted)
  half-life at 24 h: 6.8 h
[6]; oral, 5 mg/kg i.v. and 20 mg/kg p.o., read-out: oral bioavailability (F)
  bioavailability: > 50%
[6]; po, 5 mg/kg i.v. and 20 mg/kg p.o., read-out: oral bioavailability (F)
  bioavailability at 24 h: 56%
[7]
  brain GluTub (GluTub-to-total α-Tub ratio) relative to vehicle-treated mice: significant elevations in brain GluTub

## C[C@@H](Nc1c(-c2c(F)cc(C#N)cc2F)c(Cl)nc2ncnn12)C(C)(C)C [Compound 68]
[7]
  brain GluTub (GluTub-to-total α-Tub ratio) relative to vehicle-treated mice: significant elevations in brain GluTub
[8]
  CC50 at 48 h: 0.0307 ± 0.0052 µM
[9]
  CC50 at 48 h: 0.0417 ± 0.003 µM
[1]
  Class (cellular phenotype): I
